This passage reports MIC results from US10471046B2, “Method for treating, preventing, or reducing the risk of skin infection” (Melinta Subsidiary Corp., priority 2014, dated 2019).

≈ marks a conversion by molar mass, not a printed value.

This assay concerns S. aureus. Briefly: Minimum inhibitory concentrations (MICs) for S. aureus of exemplary compounds (Table 2). It is filed as cell-based. The conditions noted are these: Staphylococcus aureus, minimum inhibitory concentrations for S. aureus; read-out: MICs. An outline of the steps:
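Growth of S. aureus in media with or without compound, by broth microdilution in microtiter trays following NCCLS M7-A5 guidelines. Values are MICs in μg/mL.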
On to `CC(=O)NC[C@H]1CN(c2ccc(-c3ccc(S(=O)(=O)Cc4ccncc4)cc3)c(F)c2)C(=O)O1` [Compound 3003, N-{3-[2-Fluoro-4′-(pyridin-4-ylmethanesulfonyl)-biphenyl-4-yl]-2-oxo-oxazolidin-5-(S)-ylmethyl}-acetamide], for which the MIC was 2 µg/mL (≈ 4.14 µM).

For `CC(=O)NC[C@H]1CN(c2ccc(-c3ccc(S(=O)(=O)Cc4cc[n+]([O-])cc4)cc3)c(F)c2)C(=O)O1` [Compound 3004, N-{3-[2-Fluoro-4′-(1-oxy-pyridin-4-ylmethanesulfonyl)-biphenyl-4-yl]-2-oxo-oxazolidin-5-(S)-ylmethyl}-acetamide], the MIC came out at 4 µg/mL (≈ 8.01 µM).

On to `CC(=O)NC[C@H]1CN(c2ccc(-c3ccc(S(=O)(=O)NCc4ccncc4)cc3)c(F)c2)C(=O)O1` [Compound 3005, N-(3-{2-Fluoro-4′-[(pyridin-4-ylmethyl)-sulfamoyl]-biphenyl-4-yl}-2-oxo-oxazolidin-5-(S)-ylmethyl)-acetamide], for which the MIC stood at 2 µg/mL (≈ 4.01 µM).

Take `CC(=O)NC[C@H]1CN(c2ccc(-c3ccc(S(=O)(=O)NCc4ccccn4)cc3)c(F)c2)C(=O)O1` [Compound 3006, N-(3-{2-Fluoro-4′-[(pyridin-2-ylmethyl)-sulfamoyl]-biphenyl-4-yl}-2-oxo-oxazolidin-5-(S)-ylmethyl)-acetamide]: the MIC turned out to be 16 µg/mL (≈ 32.1 µM).

With `CC(=O)NC[C@H]1CN(c2ccc(-c3ccc(S(=O)(=O)NCCc4ccccn4)cc3)c(F)c2)C(=O)O1` [Compound 3007, N-{3-[2-Fluoro-4′-(2-pyridin-2-yl-ethylsulfamoyl)-biphenyl-4-yl]-2-oxo-oxazolidin-5-(S)-ylmethyl}-acetamide], the MIC is 1 µg/mL (≈ 1.95 µM).

Consider `CC(=O)NC[C@H]1CN(c2ccc(-c3ccc(CNC(=O)/C=C/c4c(C)[nH]c(=O)[nH]c4=O)cc3)c(F)c2)C(=O)O1` [Compound 4001, N-{4′-[5-(S)-(Acetylamino-methyl)-2-oxo-oxazolidin-3-yl]-2′-fluoro-biphenyl-4-ylmethyl}-3-(6-methyl-2,4-dioxo-1,2,3,4-tetrahydro-pyrimidin-5-yl)-acrylamide], for which the MIC stood at 0.25 µg/mL (≈ 0.467 µM).

On to `CC(=O)NC[C@H]1CN(c2ccc(-c3ccc(CNC(=O)/C=C/c4cccnc4)cc3)c(F)c2)C(=O)O1` [Compound 4002, N-{4′-[5-(S)-(Acetylamino-methyl)-2-oxo-oxazolidin-3-yl]-2′-fluoro-biphenyl-4-ylmethyl}-3-pyridin-3-yl-acrylamide], for which the MIC came out at 4 µg/mL (≈ 8.19 µM).

For `COc1nc(C)c(C=CC(=O)NCc2ccc(-c3ccc(N4C[C@H](CNC(C)=O)OC4=O)cc3F)cc2)c(OC)n1` [Compound 4003, N-{4′-[5-(S)-(Acetylamino-methyl)-2-oxo-oxazolidin-3-yl]-2′-fluoro-biphenyl-4-ylmethyl}-3-(2,4-dimethoxy-6-methyl-pyrimidin-5-yl)-acrylamide], the MIC amounted to 128 µg/mL (≈ 227 µM).

`COc1nc(C)c(/C=C/C(=O)NCc2ccc(-c3ccc(N4C[C@H](CNC(C)=O)OC4=O)cc3F)cc2)c(O)n1` [Compound 4004, N-{4′-[5-(S)-(Acetylamino-methyl)-2-oxo-oxazolidin-3-yl]-2′-fluoro-biphenyl-4-ylmethyl}-3-(4-hydroxy-2-methoxy-6-methyl-pyrimidin-5-yl)-acrylamide]: the MIC was 2 µg/mL (≈ 3.64 µM).

Consider `CC(=O)NC[C@H]1CN(c2ccc(-c3ccc(CNC(=O)/C=C/c4cn(C)c(=O)n(C)c4=O)cc3)c(F)c2)C(=O)O1` [Compound 4005, N-{4′-[5-(S)-(Acetylamino-methyl)-2-oxo-oxazolidin-3-yl]-2′-fluoro-biphenyl-4-ylmethyl}-3-(1,3-dimethyl-2,4-dioxo-1,2,3,4-tetrahydro-pyrimidin-5-yl)-acrylamide], for which the MIC was determined as 2 µg/mL (≈ 3.64 µM).

Turning to `CC(=O)NC[C@H]1CN(c2ccc(-c3ccc(CNC(=O)/C=C/c4cncnc4)cc3)c(F)c2)C(=O)O1` [Compound 4006, N-{4′-[5-(S)-(Acetylamino-methyl)-2-oxo-oxazolidin-3-yl]-2′-fluoro-biphenyl-4-ylmethyl}-3-pyrimidin-5-yl-acrylamide], the MIC is 8 µg/mL (≈ 16.3 µM).

Turning to `CC(=O)NC[C@H]1CN(c2ccc(-c3ccc(CNC(=O)/C=C/c4cncn(C)c4=O)cc3)c(F)c2)C(=O)O1` [Compound 4007, N-{4′-[5-(S)-(Acetylamino-methyl)-2-oxo-oxazolidin-3-yl]-2′-fluoro-biphenyl-4-ylmethyl}-3-(1-methyl-6-oxo-1,6-dihydro-pyrimidin-5-yl)-acrylamide], the MIC was 1 µg/mL (≈ 1.92 µM).

Consider `CC(=O)NC[C@H]1CN(c2ccc(-c3ccc(CNC(=O)c4ccnc5ccccc45)cc3)c(F)c2)C(=O)O1` [Compound 4008, Quinoline-4-carboxylic acid {4′-[5-(S)-(acetylamino-methyl)-2-oxo-oxazolidin-3-yl]-2′-fluoro-biphenyl-4-ylmethyl}-amide], for which the MIC was found to be 1 µg/mL (≈ 1.95 µM).

On to `CC(=O)NC[C@H]1CN(c2ccc(-c3ccc(CNC(=O)c4cnc5ccccc5c4)cc3)c(F)c2)C(=O)O1` [Compound 4009, Quinoline-3-carboxylic acid {4′-[5-(S)-(acetylamino-methyl)-2-oxo-oxazolidin-3-yl]-2′-fluoro-biphenyl-4-ylmethyl}-amide], for which the MIC was 32 µg/mL (≈ 62.4 µM).

Turning to `CC(=O)NC[C@H]1CN(c2ccc(-c3ccc(CNC(=O)c4cccn4C)cc3)c(F)c2)C(=O)O1` [Compound 4010, 1-Methyl-1H-pyrrole-2-carboxylic acid {4′-[5-(S)-(acetylamino-methyl)-2-oxo-oxazolidin-3-yl]-2′-fluoro-biphenyl-4-ylmethyl}-amide], the MIC worked out at 1 µg/mL (≈ 2.15 µM).

Take `CC(=O)NC[C@H]1CN(c2ccc(-c3ccc(CNC(=O)c4ccc5cc[nH]c5c4)cc3)c(F)c2)C(=O)O1` [Compound 4011, 1H-Indole-6-carboxylic acid {4′-[5-(S)-(acetylamino-methyl)-2-oxo-oxazolidin-3-yl]-2′-fluoro-biphenyl-4-ylmethyl}-amide]: the MIC is 1 µg/mL (≈ 2 µM).

`CC(=O)NC[C@H]1CN(c2ccc(-c3ccc(CNC(=O)c4cccc(S(C)(=O)=O)c4)cc3)c(F)c2)C(=O)O1` [Compound 4012, N-{4′-[5-(S)-(Acetylamino-methyl)-2-oxo-oxazolidin-3-yl]-2′-fluoro-biphenyl-4-ylmethyl}-3-methanesulfonyl-benzamide]: the MIC amounted to 4 µg/mL (≈ 7.41 µM).

As to `CC(=O)NC[C@H]1CN(c2ccc(-c3ccc(CNC(=O)c4ccc(F)cc4)cc3)c(F)c2)C(=O)O1` [Compound 4013, N-{4′-[5-(S)-(Acetylamino-methyl)-2-oxo-oxazolidin-3-yl]-2′-fluoro-biphenyl-4-ylmethyl}-4-fluoro-benzamide], the MIC amounted to 8 µg/mL (≈ 16.7 µM).

Consider `CC(=O)NC[C@H]1CN(c2ccc(-c3ccc(CNC(=O)c4ccc5c(c4)OCO5)cc3)c(F)c2)C(=O)O1` [Compound 4014, Benzo[1,3]dioxole-5-carboxylic acid {4′-[5-(S)-(acetylamino-methyl)-2-oxo-oxazolidin-3-yl]-2′-fluoro-biphenyl-4-ylmethyl}-amide], for which the MIC was 4 µg/mL (≈ 7.91 µM).

Consider `COc1ccc2[nH]c(C(=O)NCc3ccc(-c4ccc(N5C[C@H](CNC(C)=O)OC5=O)cc4F)cc3)cc2c1` [Compound 4015, 5-Methoxy-1H-indole-2-carboxylic acid {4′-[5-(S)-(acetylamino-methyl)-2-oxo-oxazolidin-3-yl]-2′-fluoro-biphenyl-4-ylmethyl}-amide], for which the MIC is 4 µg/mL (≈ 7.54 µM).

Regarding `CC(=O)NC[C@H]1CN(c2ccc(-c3ccc(CNCc4ccnc5ccccc45)cc3)c(F)c2)C(=O)O1` [Compound 4016, N-[3-(2-Fluoro-4′-{[(quinolin-4-ylmethyl)-amino]-methyl}-biphenyl-4-yl)-2-oxo-oxazolidin-5-(S)-ylmethyl]-acetamide], the MIC was determined as 1 µg/mL (≈ 2.01 µM).

Consider `CC(=O)NC[C@H]1CN(c2ccc(-c3ccc(CNCc4ccc(-c5ccccn5)cc4)cc3)c(F)c2)C(=O)O1` [Compound 4017, N-(3-{2-Fluoro-4′-[(4-pyridin-2-yl-benzylamino)-methyl]-biphenyl-4-yl}-2-oxo-oxazolidin-5-(S)-ylmethyl)-acetamide], for which the MIC was 2 µg/mL (≈ 3.81 µM).

As to `CC(=O)NC[C@H]1CN(c2ccc(-c3ccc(CNCc4ccncc4)cc3)c(F)c2)C(=O)O1` [Compound 4018, N-[3-(2-Fluoro-4′-{[(pyridin-4-ylmethyl)-amino]-methyl}-biphenyl-4-yl)-2-oxo-oxazolidin-5-(S)-ylmethyl]-acetamide], the MIC came to 1 µg/mL (≈ 2.23 µM).

Consider `CC(=O)NC[C@H]1CN(c2ccc(-c3ccc(CNCc4ccc5ccccc5n4)cc3)c(F)c2)C(=O)O1` [Compound 4019, N-[3-(2-Fluoro-4′-{[(quinolin-2-ylmethyl)-amino]-methyl}-biphenyl-4-yl)-2-oxo-oxazolidin-5-(S)-ylmethyl]-acetamide], for which the MIC was 0.5 µg/mL (≈ 1 µM).

Turning to `CC(=O)NC[C@H]1CN(c2ccc(-c3ccc(CNCc4cc5ccccc5o4)cc3)c(F)c2)C(=O)O1` [Compound 4020], the MIC was determined as 2 µg/mL (≈ 4.1 µM).

Take `CC(=O)NC[C@H]1CN(c2ccc(-c3ccc(CNCc4cnc5ccccc5c4)cc3)c(F)c2)C(=O)O1` [Compound 4021, N-[3-(2-Fluoro-4′-{[(quinolin-3-ylmethyl)-amino]-methyl}-biphenyl-4-yl)-2-oxo-oxazolidin-5-(S)-ylmethyl]-acetamide]: the MIC is 0.25 µg/mL (≈ 0.501 µM).

Consider `CC(=O)NC[C@H]1CN(c2ccc(-c3ccc(CNCc4cccc5ccccc45)cc3)c(F)c2)C(=O)O1` [Compound 4022, N-[3-(2-Fluoro-4′-{[(naphthalen-1-ylmethyl)-amino]-methyl}-biphenyl-4-yl)-2-oxo-oxazolidin-5-(S)-ylmethyl]-acetamide], for which the MIC stood at 4 µg/mL (≈ 8.04 µM).

In the case of `CC(=O)NC[C@H]1CN(c2ccc(-c3ccc(CNCc4ccoc4)cc3)c(F)c2)C(=O)O1` [Compound 4023, N-[3-(2-Fluoro-4′-{[(furan-3-ylmethyl)-amino]-methyl}-biphenyl-4-yl)-2-oxo-oxazolidin-5-(S)-ylmethyl]-acetamide], the MIC was found to be 1 µg/mL (≈ 2.29 µM).

For `CC(=O)NC[C@H]1CN(c2ccc(-c3ccc(CNCc4ccccn4)cc3)c(F)c2)C(=O)O1` [Compound 4024, N-[3-(2-Fluoro-4′-{[(pyridin-2-ylmethyl)-amino]-methyl}-biphenyl-4-yl)-2-oxo-oxazolidin-5-(S)-ylmethyl]-acetamide], the MIC worked out at 1 µg/mL (≈ 2.23 µM).
